The results in this text go back to PubChem BioAssay AID328 (DTP/NCI, 2004).

Where “and” joins values, the source holds several entries; their conditions need not be identical. Equal values may be shown once. Toxic doses and inconclusive results are not listed.

In this assay the test system is BDF1 mice, P388 leukemia ip, median survival T/C. As to the kind of experiment: NCI In Vivo Anticancer Drug Screen. Data for tumor model P388 Leukemia (intraperitoneal) in B6D2F1 (BDF1) mice. Particulars: endpoint: median survival time, higher = longer survival. In short, it runs like this:
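T/C = treated-group survival ÷ vehicle-control survival; tumour transplanted into mice before dosing.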

[1] abbreviates: dose: 100.0 mg/kg/injection, schedule: Q04DX003 (ip), vehicle: saline with Tween-80.
[2] abbreviates: dose: 400.0 mg/kg/injection, schedule: Q04DX003 (ip), vehicle: saline with Tween-80.
Setting [3] is: dose: 100.0 mg/kg/injection, schedule: Q04DX003 (ip), vehicle: saline.
The mark [4] stands for this setting: dose: 200.0 mg/kg/injection, schedule: Q04DX003 (ip), vehicle: saline.
The mark [5] stands for this setting: dose: 50.0 mg/kg/injection, schedule: Q01DX009 (ip), vehicle: other.
Setting [6] is: dose: 100.0 mg/kg/injection, schedule: Q04DX003 (ip), vehicle: Klucel (hydroxypropylcellulose) (HPC).
The mark [7] stands for this setting: dose: 200.0 mg/kg/injection, schedule: Q04DX003 (ip), vehicle: Klucel (hydroxypropylcellulose) (HPC).
[8] abbreviates: dose: 400.0 mg/kg/injection, schedule: Q04DX003 (ip), vehicle: Klucel (hydroxypropylcellulose) (HPC).
[9] abbreviates: dose: 50.0 mg/kg/injection, schedule: Q04DX003 (ip), vehicle: saline with Tween-80.
The mark [10] stands for this setting: dose: 200.0 mg/kg/injection, schedule: Q04DX003 (ip), vehicle: saline with Tween-80.
The mark [11] stands for this setting: dose: 50.0 mg/kg/injection, schedule: Q01DX009 (ip), vehicle: Klucel (hydroxypropylcellulose) (HPC).
[12] abbreviates: dose: 50.0 mg/kg/injection, schedule: Q01DX009 (ip), vehicle: saline with Tween-80.
The mark [13] stands for this setting: dose: 100.0 mg/kg/injection, schedule: Q01DX009 (ip), vehicle: saline with Tween-80.

Turning to `N=Nc1c2ccccc2c2nc3c(N)[nH]nc(N)c3nc12`, the T/C reads like this: under setting [1], 97 % of control; under setting [2], 95 % of control.

On to `COC(=O)C1CCCCC1NC(C)=O` (stereo unspecified), for which the T/C under setting [3] is 95 % of control; the T/C under setting [4] was 100 % of control; the T/C (dose: 400.0 mg/kg/injection, schedule: Q04DX003 (ip), vehicle: saline) was 91 % of control.

`OCCCN1CCCCC1CO` (stereo unspecified): where the note is “dose: 200.0 mg/kg/injection, schedule: Q01DX009 (ip), vehicle: saline”, the T/C was 165 % of control.

On to `CCCNC(=O)OCc1c(COC(=O)NCCC)c(-c2ccc(Cl)c(Cl)c2)n2c1CCC2`, for which the T/C is 151 % of control (dose: 25.0 mg/kg/injection, schedule: Q01DX009 (ip), vehicle: other) and 172 % of control under setting [5].

For `OP(=S)(c1ccccc1)c1ccccc1`, the T/C reads like this: under setting [5], 110 % of control; (dose: 100.0 mg/kg/injection, schedule: Q01DX009 (ip), vehicle: other) 106 % of control; (dose: 200.0 mg/kg/injection, schedule: Q01DX009 (ip), vehicle: other) 108 % of control.

For `CN(C)[C@@H]1C(=O)C(C(N)=O)=C(O)[C@@]2(O)C(=O)C3=C(O)c4c(O)cccc4C[C@H]3C[C@@H]12`, the T/C is, setting by setting: (dose: 3.75 mg/kg/injection, schedule: Q01DX010 (ip), vehicle: water) 100 % of control; (dose: 7.5 mg/kg/injection, schedule: Q01DX010 (ip), vehicle: saline) 120 % of control; (dose: 7.5 mg/kg/injection, schedule: Q01DX010 (ip), vehicle: water) 118 % of control; (dose: 15.0 mg/kg/injection, schedule: Q01DX010 (ip), vehicle: saline) 120 % of control; (dose: 20.0 mg/kg/injection, schedule: Q01DX010 (oral), vehicle: water) 109 % of control; (dose: 35.0 mg/kg/injection, schedule: Q01DX010 (oral), vehicle: water) 100 % of control. Further, the T/C runs as follows: (dose: 50.0 mg/kg/injection, schedule: Q01DX010 (oral), vehicle: water) 100 % of control; (dose: 60.0 mg/kg/injection, schedule: Q01DX010 (ip), vehicle: saline) 100 % of control; (dose: 65.0 mg/kg/injection, schedule: Q01DX010 (oral), vehicle: water) 109 % of control; (dose: 80.0 mg/kg/injection, schedule: Q01DX010 (oral), vehicle: water) 90 % of control.

In the case of `COc1ccc2c(ccc[n+]2C)c1`, the T/C runs as follows: (dose: 7.2 mg/kg/injection, schedule: Q01DX009 (ip), vehicle: saline) 104 % of control; (dose: 9.37 mg/kg/injection, schedule: Q04DX003 (ip), vehicle: saline) 91 % of control; (dose: 10.0 mg/kg/injection, schedule: Q01DX009 (ip), vehicle: saline) 104 % of control; (dose: 18.75 mg/kg/injection, schedule: Q04DX003 (ip), vehicle: saline) 91 % of control; (dose: 35.0 mg/kg/injection, schedule: Q04DX003 (ip), vehicle: saline) 122 % of control; (dose: 36.7 mg/kg/injection, schedule: Q04DX003 (ip), vehicle: saline) 110 % of control. The T/C by setting is: (dose: 37.5 mg/kg/injection, schedule: Q01DX009 (ip), vehicle: saline) 150 % of control and 155 % of control; (dose: 37.5 mg/kg/injection, schedule: Q04DX003 (ip), vehicle: saline) 104 % of control; (dose: 55.0 mg/kg/injection, schedule: Q04DX003 (ip), vehicle: saline) 154 % of control.

On to `O=[N+]([O-])c1ccc(C(Br)C(Br)c2ccccc2Cl)cc1` (stereo unspecified), for which the T/C was 100 % of control under setting [6], 100 % of control under setting [7] and 100 % of control under setting [8].

For `COc1cccc2c1C(=O)c1c(O)c3c(c(O)c1C2=O)C[C@@](O)(C(C)=O)C[C@@H]3OC1CC(NC(=O)c2ccncc2)C(O)C(C)O1` (stereo partly specified), the T/C is, setting by setting: (dose: 3.13 mg/kg/injection, schedule: Q01DX009 (ip), vehicle: water) 150 % of control; (dose: 6.25 mg/kg/injection, schedule: Q01DX009 (ip), vehicle: water) 154 % of control; (dose: 12.5 mg/kg/injection, schedule: Q01DX009 (ip), vehicle: water) 159 % of control.

In the case of `CC(=O)n1cc(C2CC(=O)OC3=C2CC(=O)C(C)(C)C3)c2ccccc21` (stereo unspecified), the T/C under setting [9] is 100 % of control; the T/C under setting [1] was 88 % of control and 95 % of control; the T/C under setting [10] is 94 % of control and 95 % of control; the T/C under setting [2] was 94 % of control and 96 % of control.

In the case of `O=C1OCC2CC3c4ccccc4C12c1ccccc13` (stereo unspecified), the T/C was 105 % of control (dose: 200.0 mg/kg/injection, schedule: Q01DX001 (ip), vehicle: Klucel (hydroxypropylcellulose) (HPC)) and 95 % of control (dose: 400.0 mg/kg/injection, schedule: Q01DX001 (ip), vehicle: Klucel (hydroxypropylcellulose) (HPC)).

`O=C1c2ccccc2C(=O)N1CN1C(=O)c2ccccc2C1=O`: the T/C is 95 % of control under setting [9], 90 % of control under setting [1] and 86 % of control under setting [10].

As to `CCC(=O)NC1=CC(=O)c2ccccc2C1=O`, the T/C (dose: 12.5 mg/kg/injection, schedule: Q01DX009 (ip), vehicle: Klucel (hydroxypropylcellulose) (HPC)) is 109 % of control; the T/C (dose: 25.0 mg/kg/injection, schedule: Q01DX009 (ip), vehicle: Klucel (hydroxypropylcellulose) (HPC)) is 109 % of control; the T/C under setting [11] was 122 % of control.

Regarding `COC(=O)CCC(=O)/C=C1/Nc2ccccc2C1=O`, the T/C reads like this: (dose: 50.0 mg/kg/injection, schedule: Q04DX003 (ip), vehicle: saline) 90 % of control; under setting [3], 110 % of control; under setting [4], 120 % of control.

For `COC1=C(N)C(=O)c2nc(-c3nc(C=O)c(C)c(-c4ccc(OC)c(OC)c4O)c3N)ccc2C1=O`, the T/C was 104 % of control (dose: 0.8 mg/kg/injection, schedule: Q01DX009 (ip), vehicle: dioxane); 122 % of control (dose: 1.05 mg/kg/injection, schedule: Q01DX009 (ip), vehicle: dioxane); 99 % of control (dose: 1.55 mg/kg/injection, schedule: Q01DX009 (ip), vehicle: dioxane); 107 % of control (dose: 2.55 mg/kg/injection, schedule: Q01DX009 (ip), vehicle: dioxane); 104 % of control (dose: 3.05 mg/kg/injection, schedule: Q01DX009 (ip), vehicle: dioxane); 109 % of control (dose: 4.05 mg/kg/injection, schedule: Q01DX009 (ip), vehicle: dioxane). The T/C (dose: 5.05 mg/kg/injection, schedule: Q01DX009 (ip), vehicle: dioxane) was 118 % of control.

Regarding `CCOC(=O)C(C)Cl` (stereo unspecified), the T/C reads like this: under setting [11], 104 % of control; (dose: 100.0 mg/kg/injection, schedule: Q01DX009 (ip), vehicle: Klucel (hydroxypropylcellulose) (HPC)) 100 % of control; under setting [6], 110 % of control; (dose: 200.0 mg/kg/injection, schedule: Q01DX009 (ip), vehicle: Klucel (hydroxypropylcellulose) (HPC)) 91 % of control; under setting [7], 105 % of control; under setting [8], 105 % of control.

Regarding `[Cl][Pb]([Cl])([c]1ccccc1)[c]1ccccc1`, the T/C (dose: 25.0 mg/kg/injection, schedule: Q01DX009 (ip), vehicle: saline with Tween-80) is 91 % of control; the T/C under setting [12] was 87 % of control; the T/C under setting [13] is 97 % of control.

`Clc1nn2nnnc2c2ccccc12`: the T/C runs as follows: (dose: 10.0 mg/kg/injection, schedule: Q01DX009 (ip), vehicle: saline with Tween-80) 102 % of control; (dose: 20.0 mg/kg/injection, schedule: Q01DX009 (ip), vehicle: saline with Tween-80) 122 % of control; (dose: 37.5 mg/kg/injection, schedule: Q01DX009 (ip), vehicle: saline with Tween-80) 91 % of control.

On to `CCOC(=O)CC1=NN(C(=O)c2ccccc2)C(=NC(=O)c2ccccc2)SC1`, for which the T/C runs as follows: under setting [12], 99 % of control; under setting [13], 101 % of control; (dose: 200.0 mg/kg/injection, schedule: Q01DX009 (ip), vehicle: saline with Tween-80) 90 % of control.

As for `CCCCCCCCCCC[N+](C)(C)CC[N+](C)(C)CCCCCCCCCCC`, the T/C (dose: 3.13 mg/kg/injection, schedule: Q01DX009 (ip), vehicle: saline) was 107 % of control; the T/C (dose: 6.25 mg/kg/injection, schedule: Q01DX009 (ip), vehicle: saline) was 110 % of control; the T/C (dose: 12.5 mg/kg/injection, schedule: Q01DX009 (ip), vehicle: saline) is 111 % of control.
